Measurements taken from US8076487B2, “Pyridone derivative and herbicide” (Kumiai Chemical Industry Co., Ltd., priority 2006, dated 2011).

Columns and labels:
Type in all cases: in vivo
[1] = system: green foxtail (Setaria viridis (L.) P. Beauv.); experiment: Test Example 3: herbicidal effect by application to upland field (foliage treatment); conditions: 14th day after application; for herbicidal effect (index), Green Foxtail: foliage treatment, plants grown two weeks, 1,000 g active ingredient per hectare; for herbicidal effect, Green Foxtail: foliage treatment, 1,000 g active ingredient per 1 hectare, greenhouse
In short: (§1)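 Seeds went into pots of field soil and grew under glass for two weeks. The whole plant was then sprayed from above with diluted wettable powder delivering 1,000 g/ha of active ingredient. Plants stayed in the greenhouse, and injury was graded against a standard 14 days after spraying.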

[2] = system: barnyardgrass (Echinochloa crus-galli (L.) P. Beauv. var. crus-galli); experiment: as above; conditions: 14th day after application; for herbicidal effect (index), Barnyardgrass: foliage treatment, plants grown two weeks, 1,000 g active ingredient per hectare; for herbicidal effect, Barnyardgrass: foliage treatment, 1,000 g active ingredient per 1 hectare, greenhouse
In short: as §1

[3] = system: slender amaranth (Amaranthus viridis L.); experiment: as above; conditions: 14th day after application; for herbicidal effect (index), Slender Amaranth: foliage treatment, plants grown two weeks, 1,000 g active ingredient per hectare; for herbicidal effect, Slender Amaranth: foliage treatment, 1,000 g active ingredient per 1 hectare, greenhouse
In short: as §1

[4] = system: velvetleaf (Abutilon theophrasti medicus); experiment: as above; conditions: 14th day after application; for herbicidal effect (index), Velvetleaf: foliage treatment, plants grown two weeks, 1,000 g active ingredient per hectare; for herbicidal effect, Velvetleaf: foliage treatment, 1,000 g active ingredient per 1 hectare, greenhouse
In short: as §1

[5] = system: Japanese bulrush (Scirpus juncoides Roxb.); experiment: Test Example 1: herbicidal effect by soil application to paddy field; conditions: paddy field soil application; active ingredient 1,000 g per 1 hectare; wettable powder added dropwise to water surface the day after sowing; examined on the 21st day after application
In short: (§2)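 Plants were sown in flooded (3 cm) paddy soil and evaluated for herbicidal effect 21 days after soil application in a greenhouse.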

[6] = system: heartshape false pickerelweed (Monochoria vaginalis (Burm.f.) C.Presl); experiment: as above; conditions: paddy field soil application; active ingredient 1,000 g per 1 hectare; wettable powder added dropwise to water surface the day after sowing; examined on the 21st day after application
In short: as §2

[7] = system: early watergrass (Echinochloa oryzicola Vasing); experiment: as above; conditions: paddy field soil application; active ingredient 1,000 g per 1 hectare; wettable powder added dropwise to water surface the day after sowing; examined on the 21st day after application
In short: as §2

[8] = system: green foxtail (Setaria viridis (L.) P. Beauv.); experiment: Test Example 2: herbicidal effect by soil application to upland field; conditions: soil surface spray, upland field soil, 1,000 g active ingredient per hectare, 21st day after application
In short: (§3)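 In this soil-application test, sown and soil-covered pots are sprayed uniformly with the formulation diluted in water, giving 1,000 g of active ingredient per ha in a volume of 1,000 L per ha. Plants then grow in a greenhouse for 21 days before herbicidal scoring by a standard scale.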

[9] = system: barnyardgrass (Echinochloa crus-galli (L.) P. Beauv. var. crus-galli); experiment: as above; conditions: soil surface spray, upland field soil, 1,000 g active ingredient per hectare, 21st day after application
In short: as §3

[10] = system: slender amaranth (Amaranthus viridis L.); experiment: as above; conditions: soil surface spray, upland field soil, 1,000 g active ingredient per hectare, 21st day after application
In short: as §3

[11] = system: velvetleaf (Abutilon theophrasti medicus); experiment: as above; conditions: soil surface spray, upland field soil, 1,000 g active ingredient per hectare, 21st day after application
In short: as §3

SMILES	herbicidal effect (index), Green Foxtail [1]	herbicidal effect (index), Barnyardgrass [2]	herbicidal effect (index), Slender Amaranth [3]	herbicidal effect (index), Velvetleaf [4]	herbicidal effect, Scirpus juncoides Roxb. [5]	herbicidal effect, Monochoria vaginalis (Burm. f.) C. Presl [6]	herbicidal effect, Echinochloa oryzicola Vasing [7]	herbicidal effect (index), Green Foxtail [8]	herbicidal effect (index), Barnyardgrass [9]	herbicidal effect (index), Slender Amaranth [10]	herbicidal effect (index), Velvetleaf [11]	herbicidal effect, Green Foxtail [1]	herbicidal effect, Barnyardgrass [2]	herbicidal effect, Slender Amaranth [3]	herbicidal effect, Velvetleaf [4]
O=C1CCCC(O)=C1C(=O)c1ccc(C(F)(F)F)n(-c2ccccc2)c1=O [I-72, 2-[1,2-dihydro-2-oxo-1-phenyl-6-(trifluoromethyl)pyridine-3-carbonyl]-3-hydroxy-2-cyclohexen-1-one]	5 (90% or more of herbicidal effect and crop phytotoxicity)	5 (90% or more of herbicidal effect and crop phytotoxicity)	5 (90% or more of herbicidal effect and crop phytotoxicity)	5 (90% or more of herbicidal effect and crop phytotoxicity)	5 (90% or more of herbicidal effect and crop phytotoxicity)	5 (90% or more of herbicidal effect and crop phytotoxicity)	5 (90% or more of herbicidal effect and crop phytotoxicity)	5 (90% or more of herbicidal effect and crop phytotoxicity)	5 (90% or more of herbicidal effect and crop phytotoxicity)	5 (90% or more of herbicidal effect and crop phytotoxicity)	5 (90% or more of herbicidal effect and crop phytotoxicity)				
CCCCn1c(C(F)(F)F)ccc(C(=O)C2=C(O)CCCC2=O)c1=O [I-5]	5 (90% or more of herbicidal effect and crop phytotoxicity)	5 (90% or more of herbicidal effect and crop phytotoxicity)	5 (90% or more of herbicidal effect and crop phytotoxicity)	5 (90% or more of herbicidal effect and crop phytotoxicity)	5 (90% or more of herbicidal effect and crop phytotoxicity)	5 (90% or more of herbicidal effect and crop phytotoxicity)	5 (90% or more of herbicidal effect and crop phytotoxicity)	5 (90% or more of herbicidal effect and crop phytotoxicity)	5 (90% or more of herbicidal effect and crop phytotoxicity)	5 (90% or more of herbicidal effect and crop phytotoxicity)	5 (90% or more of herbicidal effect and crop phytotoxicity)				
Cn1ncc(C(=O)c2ccc(C(F)(F)F)n(-c3ccc(F)c(F)c3)c2=O)c1O [IV-85]					5 (90% or more of herbicidal effect and crop phytotoxicity)	5 (90% or more of herbicidal effect and crop phytotoxicity)	5 (90% or more of herbicidal effect and crop phytotoxicity)	5 (90% or more of herbicidal effect and crop phytotoxicity)	5 (90% or more of herbicidal effect and crop phytotoxicity)	5 (90% or more of herbicidal effect and crop phytotoxicity)	5 (90% or more of herbicidal effect and crop phytotoxicity)	5 (90% or more of herbicidal effect and crop phytotoxicity)	5 (90% or more of herbicidal effect and crop phytotoxicity)	5 (90% or more of herbicidal effect and crop phytotoxicity)	5 (90% or more of herbicidal effect and crop phytotoxicity)
CCCn1c(C(F)(F)F)ccc(C(=O)c2cnn(C)c2OC(=O)c2ccccc2)c1=O [IV-4]					5 (90% or more of herbicidal effect and crop phytotoxicity)	5 (90% or more of herbicidal effect and crop phytotoxicity)	5 (90% or more of herbicidal effect and crop phytotoxicity)	5 (90% or more of herbicidal effect and crop phytotoxicity)	5 (90% or more of herbicidal effect and crop phytotoxicity)	5 (90% or more of herbicidal effect and crop phytotoxicity)	5 (90% or more of herbicidal effect and crop phytotoxicity)	4 (70 to less than 90% of herbicidal effect and crop phytotoxicity)	5 (90% or more of herbicidal effect and crop phytotoxicity)	5 (90% or more of herbicidal effect and crop phytotoxicity)	5 (90% or more of herbicidal effect and crop phytotoxicity)
O=C1CCCC(O)=C1C(=O)c1ccc(C(F)(F)F)n(CSC2CC2)c1=O [I-52]	5 (90% or more of herbicidal effect and crop phytotoxicity)	5 (90% or more of herbicidal effect and crop phytotoxicity)	5 (90% or more of herbicidal effect and crop phytotoxicity)	5 (90% or more of herbicidal effect and crop phytotoxicity)	5 (90% or more of herbicidal effect and crop phytotoxicity)	5 (90% or more of herbicidal effect and crop phytotoxicity)	5 (90% or more of herbicidal effect and crop phytotoxicity)	5 (90% or more of herbicidal effect and crop phytotoxicity)	5 (90% or more of herbicidal effect and crop phytotoxicity)	5 (90% or more of herbicidal effect and crop phytotoxicity)	5 (90% or more of herbicidal effect and crop phytotoxicity)				
CC(C)n1ncc(C(=O)c2ccc(C(F)(F)F)n(C)c2=O)c1O [IV-219]					5 (90% or more of herbicidal effect and crop phytotoxicity)	5 (90% or more of herbicidal effect and crop phytotoxicity)	5 (90% or more of herbicidal effect and crop phytotoxicity)	3 (50 to less than 70% of herbicidal effect and crop phytotoxicity)	5 (90% or more of herbicidal effect and crop phytotoxicity)	5 (90% or more of herbicidal effect and crop phytotoxicity)	5 (90% or more of herbicidal effect and crop phytotoxicity)	3 (50 to less than 70% of herbicidal effect and crop phytotoxicity)	5 (90% or more of herbicidal effect and crop phytotoxicity)	5 (90% or more of herbicidal effect and crop phytotoxicity)	5 (90% or more of herbicidal effect and crop phytotoxicity)
O=C1CCCC(O)=C1C(=O)c1ccc(C(F)F)n(-c2ccccc2)c1=O [I-223]					5 (90% or more of herbicidal effect and crop phytotoxicity)	5 (90% or more of herbicidal effect and crop phytotoxicity)	5 (90% or more of herbicidal effect and crop phytotoxicity)	5 (90% or more of herbicidal effect and crop phytotoxicity)	5 (90% or more of herbicidal effect and crop phytotoxicity)	5 (90% or more of herbicidal effect and crop phytotoxicity)	5 (90% or more of herbicidal effect and crop phytotoxicity)	5 (90% or more of herbicidal effect and crop phytotoxicity)	5 (90% or more of herbicidal effect and crop phytotoxicity)	5 (90% or more of herbicidal effect and crop phytotoxicity)	5 (90% or more of herbicidal effect and crop phytotoxicity)
CCCCNn1c(C(F)(F)F)ccc(C(=O)C2=C(O)CCCC2=O)c1=O [I-161]					5 (90% or more of herbicidal effect and crop phytotoxicity)	5 (90% or more of herbicidal effect and crop phytotoxicity)	5 (90% or more of herbicidal effect and crop phytotoxicity)	5 (90% or more of herbicidal effect and crop phytotoxicity)	5 (90% or more of herbicidal effect and crop phytotoxicity)	5 (90% or more of herbicidal effect and crop phytotoxicity)	5 (90% or more of herbicidal effect and crop phytotoxicity)	5 (90% or more of herbicidal effect and crop phytotoxicity)	5 (90% or more of herbicidal effect and crop phytotoxicity)	5 (90% or more of herbicidal effect and crop phytotoxicity)	5 (90% or more of herbicidal effect and crop phytotoxicity)
